Experimental data from publication PMC6155603, “Synthesis and Preliminary Biological Evaluation of Indol-3-yl-oxoacetamides as Potent Cannabinoid Receptor Type 2 Ligands” (Molecules : A Journal of Synthetic Chemistry and Natural …, 2017).
pKi: −log10 of the molar value.

Legend:
human CB1 receptors = human CB1 receptors (Homo sapiens, UniProt P21554); assay: CB1 binding assay with [^3H]CP55.40 as competitive radioligand; conditions: no displacement of radioligand up to this concentration
Protocol: Non-specific binding was determined using 10 µM WIN55.212-2. The individual IC50 values were determined by non-linear curve fitting using GraphPad Prism software (version 3.0, GraphPhad, San Diego, CA, USA), and the corresponding Ki values calculated using the Cheng–Prusoff equation [44]. […] Additionally, the binding affinities towards the CB1 receptor were investigated for compounds 6 and 8 by using [^3H]CP55.40 as competitive radioligand. None of the two derivatives could displace [^3H]CP55.40 from the human CB1 receptors up to a concentration of 100 µM. Thus, within this series of fluoro-substituted compounds, the N-alkyl chain of compound 8 is most suitable to obtain high affinity binding at the CB2 receptor, combined with an excellent selectivity against the CB1 receptor subtype.

human CB2 = biological target: T1, human CB2 (Homo sapiens, UniProt P34972); assay: radioligand inhibition binding assay, [^3H]WIN55.212-2, membranes of CHO cells stably transfected with human CB2
T1 construct: host or cells: CHO cells (stably transfected), membrane homogenates
T1 sequence (P34972 whole entry): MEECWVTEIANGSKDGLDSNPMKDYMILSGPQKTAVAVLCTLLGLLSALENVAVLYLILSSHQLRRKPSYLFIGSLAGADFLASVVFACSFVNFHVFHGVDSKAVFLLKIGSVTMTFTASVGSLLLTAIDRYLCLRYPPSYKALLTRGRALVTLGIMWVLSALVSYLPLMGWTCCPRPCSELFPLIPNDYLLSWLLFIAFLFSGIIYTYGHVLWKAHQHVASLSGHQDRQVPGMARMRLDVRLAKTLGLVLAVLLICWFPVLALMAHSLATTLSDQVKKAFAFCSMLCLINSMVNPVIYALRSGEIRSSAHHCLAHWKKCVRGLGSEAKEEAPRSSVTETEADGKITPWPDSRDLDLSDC
Protocol: Non-specific binding was determined using 10 µM WIN55.212-2. The individual IC50 values were determined by non-linear curve fitting using GraphPad Prism software (version 3.0, GraphPhad, San Diego, CA, USA), and the corresponding Ki values calculated using the Cheng–Prusoff equation [44]. […] Additionally, the binding affinities towards the CB1 receptor were investigated for compounds 6 and 8 by using [^3H]CP55.40 as competitive radioligand.

CB2 = conditions: reported value of lead molecule; cited from earlier work
CB1 = conditions: reported value of lead molecule; cited from earlier work

human CB1 receptors, sequence (P21554 whole entry): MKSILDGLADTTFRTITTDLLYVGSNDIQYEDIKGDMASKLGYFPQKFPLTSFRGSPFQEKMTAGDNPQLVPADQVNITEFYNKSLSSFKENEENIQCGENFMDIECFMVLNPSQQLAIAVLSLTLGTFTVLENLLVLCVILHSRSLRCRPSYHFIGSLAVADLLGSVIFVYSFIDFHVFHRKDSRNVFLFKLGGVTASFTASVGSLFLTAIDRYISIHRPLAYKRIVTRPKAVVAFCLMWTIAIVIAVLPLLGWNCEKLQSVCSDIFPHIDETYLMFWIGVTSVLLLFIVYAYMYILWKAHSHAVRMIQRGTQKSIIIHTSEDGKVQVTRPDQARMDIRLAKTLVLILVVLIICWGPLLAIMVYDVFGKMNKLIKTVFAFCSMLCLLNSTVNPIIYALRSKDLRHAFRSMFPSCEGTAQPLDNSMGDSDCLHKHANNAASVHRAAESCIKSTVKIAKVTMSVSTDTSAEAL

Compound	concentration up to which [^3H]CP55.40 was not displaced from human CB1 receptors (human CB1 receptors) [µM]	pKi (human CB2)	pKi (CB2)	pKi (CB1)
O=C(NC12CC3CC(CC(C3)C1)C2)C(=O)c1cn(CCOCCF)c2ccc(-c3ccco3)cc12 [compound 8, N-(Adamantan-1-yl)-2-(1-(2-(2-fluoroethoxy)ethyl)-5-(furan-2-yl)-1H-indol-3-yl)-2-oxoacetamide]	> 100	8.21	–	–
O=C(NC12CC3CC(CC(C3)C1)C2)C(=O)c1cn(CCOCCOCCF)c2ccc(-c3ccco3)cc12 [compound 6, N-(Adamantan-1-yl)-2-(1-(2-(2-(2-fluoroethoxy)ethoxy)ethyl)-5-(furan-2-yl)-1H-indol-3-yl)-2-oxoacetamide]	> 100	7.56	–	–
COCCn1cc(C(=O)C(=O)NC23CC4CC(CC(C4)C2)C3)c2cc(-c3ccco3)ccc21 [compound 7, N-(Adamantan-1-yl)-2-(5-(furan-2-yl)-1-(2-methoxyethyl)-1H-indol-3-yl)-2-oxoacetamide]	–	7.79	–	–
CCCCCn1cc(C(=O)C(=O)NC23CC4CC(CC(C4)C2)C3)c2cc(-c3ccco3)ccc21 [compound 5, N-(Adamantan-1-yl)-2-(5-(furan-2-yl)-1-pentyl-1H-indol-3-yl)-2-oxoacetamide]	–	8.07	9.43	6.46
